Assay results reported in US20230085307A1, “PYRIDAZINONE COMPOUND AND HERBICIDE” (NISSAN CHEMICAL CORPORATION, priority 2019, published 2023).

Assays:
wild oat [1] = test: Test Example 4: herbicidal effect by soil treatment (Table 19, symbol I); format: in vivo, wild oat (Avena fatua); settings: amount of applied herbicide 320 g/ha
Method in brief: (§1)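 Applied as a water-diluted emulsion, the compound was sprayed onto soil covering newly sown seeds. Evaluation came three weeks after application, in a greenhouse held at 25° C. to 30° C.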

windgrass [2] = test: Test Example 5: herbicidal effect by foliage application, plastic box (Table 20, symbol L); format: in vivo, windgrass (Apera spica-venti); settings: foliage application, 320 g/ha, three weeks after application
Method in brief: (§2)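 Sow seeds spot-wise in sterilized diluvial soil; cover with ~1.5 cm soil. Grow 14 days in greenhouse, 25° C. to 30° C. Spray foliage with emulsion diluted to predetermined amount. Rate effect after 3 weeks.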

green foxtail [3] = test: Test Example 5: herbicidal effect by foliage application, plastic box (Table 20, symbol G); format: in vivo, green foxtail (Setaria viridis); settings: foliage application, 320 g/ha, three weeks after application
Method in brief: as §2

velvetleaf [4] = test: Test Example 4: herbicidal effect by soil treatment (Table 19, symbol M); format: in vivo, velvetleaf (Abutilon theophrasti); settings: amount of applied herbicide 320 g/ha
Method in brief: as §1

rice flat sedge = test: Test Example 3: herbicidal effect by foliage application, Wagner pot (Table 18, symbol E); format: in vivo, rice flat sedge (Cyperus iria); settings: 320 g/ha
Method in brief: (§3)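 Plants were sown in alluvial soil held under 0.1–0.5 cm standing water and grown 14 days in a greenhouse at 25–30 °C. An emulsifiable formulation, water-diluted to the set dose, was then sprayed onto the foliage, and effects were scored three weeks later using previously defined criteria.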

Italian ryegrass [5] = test: Test Example 5: herbicidal effect by foliage application, plastic box (Table 20, symbol K); format: in vivo, Italian ryegrass (Lolium multiflorum); settings: foliage application, 320 g/ha, three weeks after application
Method in brief: as §2

redroot pigweed [6] = test: Test Example 4: herbicidal effect by soil treatment (Table 19, symbol N); format: in vivo, redroot pigweed (Amaranthus retroflexus); settings: amount of applied herbicide 320 g/ha
Method in brief: as §1

blackgrass [7] = test: Test Example 4: herbicidal effect by soil treatment (Table 19, symbol J); format: in vivo, blackgrass (Alopecurus myosuroides); settings: amount of applied herbicide 320 g/ha
Method in brief: as §1

redroot pigweed [8] = test: Test Example 5: herbicidal effect by foliage application, plastic box (Table 20, symbol N); format: in vivo, redroot pigweed (Amaranthus retroflexus); settings: foliage application, 320 g/ha, three weeks after application
Method in brief: as §2

velvetleaf [9] = test: Test Example 5: herbicidal effect by foliage application, plastic box (Table 20, symbol M); format: in vivo, velvetleaf (Abutilon theophrasti); settings: foliage application, 320 g/ha, three weeks after application
Method in brief: as §2

persian speedwell [10] = test: Test Example 4: herbicidal effect by soil treatment (Table 19, symbol R); format: in vivo, Persian speedwell (Veronica persica); settings: amount of applied herbicide 320 g/ha
Method in brief: as §1

barnyard grass [11] = test: Test Example 3: herbicidal effect by foliage application, Wagner pot (Table 18, symbol H); format: in vivo, barnyard grass (Echinochloa crus-galli); settings: 320 g/ha
Method in brief: as §3

blackgrass [12] = test: Test Example 5: herbicidal effect by foliage application, plastic box (Table 20, symbol J); format: in vivo, blackgrass (Alopecurus myosuroides); settings: foliage application, 320 g/ha, three weeks after application
Method in brief: as §2

Chinese sprangletop = test: Test Example 3: herbicidal effect by foliage application, Wagner pot (Table 18, symbol D); format: in vivo, chinese sprangletop (Leptochloa chinensis); settings: 320 g/ha
Method in brief: as §3

chickweed [13] = test: Test Example 4: herbicidal effect by soil treatment (Table 19, symbol P); format: in vivo, common chickweed (Stellaria media); settings: amount of applied herbicide 320 g/ha
Method in brief: as §1

southern crabgrass [14] = test: Test Example 4: herbicidal effect by soil treatment (Table 19, symbol F); format: in vivo, southern crabgrass (Digitaria ciliaris); settings: amount of applied herbicide 320 g/ha
Method in brief: as §1

false cleavers = test: Test Example 5: herbicidal effect by foliage application, plastic box (Table 20, symbol Q); format: in vivo, false cleavers (Galium spurium); settings: foliage application, 320 g/ha, three weeks after application
Method in brief: as §2

barnyard grass [15] = test: Test Example 4: herbicidal effect by soil treatment (Table 19, symbol H); format: in vivo, barnyard grass (Echinochloa crus-galli); settings: amount of applied herbicide 320 g/ha
Method in brief: as §1

barnyard grass [16] = test: Test Example 5: herbicidal effect by foliage application, plastic box (Table 20, symbol H); format: in vivo, barnyard grass (Echinochloa crus-galli); settings: foliage application, 320 g/ha, three weeks after application
Method in brief: as §2

southern crabgrass [17] = test: Test Example 5: herbicidal effect by foliage application, plastic box (Table 20, symbol F); format: in vivo, southern crabgrass (Digitaria ciliaris); settings: foliage application, 320 g/ha, three weeks after application
Method in brief: as §2

wild oat [18] = test: Test Example 5: herbicidal effect by foliage application, plastic box (Table 20, symbol I); format: in vivo, wild oat (Avena fatua); settings: foliage application, 320 g/ha, three weeks after application
Method in brief: as §2

Italian ryegrass [19] = test: Test Example 4: herbicidal effect by soil treatment (Table 19, symbol K); format: in vivo, Italian ryegrass (Lolium multiflorum); settings: amount of applied herbicide 320 g/ha
Method in brief: as §1

lambsquarters [20] = test: Test Example 5: herbicidal effect by foliage application, plastic box (Table 20, symbol O); format: in vivo, lambsquarters (Chenopodium album); settings: foliage application, 320 g/ha, three weeks after application
Method in brief: as §2

persian speedwell [21] = test: Test Example 5: herbicidal effect by foliage application, plastic box (Table 20, symbol R); format: in vivo, Persian speedwell (Veronica persica); settings: foliage application, 320 g/ha, three weeks after application
Method in brief: as §2

green foxtail [22] = test: Test Example 4: herbicidal effect by soil treatment (Table 19, symbol G); format: in vivo, green foxtail (Setaria viridis); settings: amount of applied herbicide 320 g/ha
Method in brief: as §1

lambsquarters [23] = test: Test Example 4: herbicidal effect by soil treatment (Table 19, symbol O); format: in vivo, lambsquarters (Chenopodium album); settings: amount of applied herbicide 320 g/ha
Method in brief: as §1

windgrass [24] = test: Test Example 4: herbicidal effect by soil treatment (Table 19, symbol L); format: in vivo, windgrass (Apera spica-venti); settings: amount of applied herbicide 320 g/ha
Method in brief: as §1

chickweed [25] = test: Test Example 5: herbicidal effect by foliage application, plastic box (Table 20, symbol P); format: in vivo, common chickweed (Stellaria media); settings: foliage application, 320 g/ha, three weeks after application
Method in brief: as §2

SMILES: CCCC(=O)Oc1c(C)nn(C)c(=O)c1-c1c(-c2ccc(C)c(C)c2)sc2ccccc12 [1-066]
- herbicidal effect rating, I: wild oat (wild oat [1]): 0 (Herbicidal rate of 5% or less (almost no effect))
- herbicidal effect grade, L: windgrass (windgrass [2]): 0 (Herbicidal rate of 5% or less (almost no effect))
- herbicidal effect grade, G: green foxtail (green foxtail [3]): 3 (Herbicidal rate of 40% or more and less than 70%)
- herbicidal effect rating, M: velvetleaf (velvetleaf [4]): 0 (Herbicidal rate of 5% or less (almost no effect))
- herbicidal effect on E (rice flat sedge), rating 0-5 (rice flat sedge): 5 (Herbicidal rate of 90% or more (almost completely withered))
- herbicidal effect grade, K: Italian ryegrass (Italian ryegrass [5]): 0 (Herbicidal rate of 5% or less (almost no effect))
- herbicidal effect rating, N: redroot pigweed (redroot pigweed [6]): 0 (Herbicidal rate of 5% or less (almost no effect))
- herbicidal effect rating, J: blackgrass (blackgrass [7]): 0 (Herbicidal rate of 5% or less (almost no effect))
- herbicidal effect grade, N: redroot pigweed (redroot pigweed [8]): 4 (Herbicidal rate of 70% or more and less than 90%)
- herbicidal effect grade, M: velvetleaf (velvetleaf [9]): 4 (Herbicidal rate of 70% or more and less than 90%)
- herbicidal effect rating, R: persian speedwell (persian speedwell [10]): 4 (Herbicidal rate of 70% or more and less than 90%)
- herbicidal effect on H (barnyard grass), rating 0-5 (barnyard grass [11]): 2 (Herbicidal rate of 20% or more and less than 40%)
- herbicidal effect grade, J: blackgrass (blackgrass [12]): 0 (Herbicidal rate of 5% or less (almost no effect))
- herbicidal effect on D (Chinese sprangletop), rating 0-5 (Chinese sprangletop): 0 (Herbicidal rate of 5% or less (almost no effect))
- herbicidal effect rating, P: chickweed (chickweed [13]): 2 (Herbicidal rate of 20% or more and less than 40%)
- herbicidal effect rating, F: southern crabgrass (southern crabgrass [14]): 0 (Herbicidal rate of 5% or less (almost no effect))
- herbicidal effect grade, Q: false cleavers (false cleavers): 2 (Herbicidal rate of 20% or more and less than 40%)
- herbicidal effect rating, H: barnyard grass (barnyard grass [15]): 0 (Herbicidal rate of 5% or less (almost no effect))
- herbicidal effect grade, H: barnyard grass (barnyard grass [16]): 2 (Herbicidal rate of 20% or more and less than 40%)
- herbicidal effect grade, F: southern crabgrass (southern crabgrass [17]): 2 (Herbicidal rate of 20% or more and less than 40%)
- herbicidal effect grade, I: wild oat (wild oat [18]): 1 (Herbicidal rate of 5% or more and less than 20%)
- herbicidal effect rating, K: Italian ryegrass (Italian ryegrass [19]): 0 (Herbicidal rate of 5% or less (almost no effect))
- herbicidal effect grade, O: lambsquarters (lambsquarters [20]): 0 (Herbicidal rate of 5% or less (almost no effect))
- herbicidal effect grade, R: persian speedwell (persian speedwell [21]): 5 (Herbicidal rate of 90% or more (almost completely withered))
- herbicidal effect rating, G: green foxtail (green foxtail [22]): 0 (Herbicidal rate of 5% or less (almost no effect))
- herbicidal effect rating, O: lambsquarters (lambsquarters [23]): 0 (Herbicidal rate of 5% or less (almost no effect))
- herbicidal effect rating, L: windgrass (windgrass [24]): 0 (Herbicidal rate of 5% or less (almost no effect))
- herbicidal effect grade, P: chickweed (chickweed [25]): 5 (Herbicidal rate of 90% or more (almost completely withered))
